We go through one molecule from patent publication US8871765B2, “Substituted 4-(4-fluoro-3-(piperazine-1-carbonyl)benzyl)phthalazin-1(2H)-one derivatives as poly (ADP-ribose) polymerase-1 inhibitors” (Cadila Healthcare Limited, priority 2010, dated 2014).

In one test the test system is MCF-7 cell line. The test can be described thus: Potentiation of cell killing activity of Methyl Methane Sulphonate (MMS) in MCF-7 cells, MTT assay. The test is classed as cell-based. Conditions: compound at 100 nM, cell survival without/with alkylating agent MMS. On the procedure: Potentiation of cell killing activity of Methyl Methane Sulphonate (MMS) by selected compounds according to present invention was evaluated in MCF-7 cell line obtained from National Centre for Cell Science, Pune, by using MTT assay according to general protocol described in Methods in Molecular Biology, Volume-43, In vitro Toxicity Testing Protocol, Chapter-6, page: 137-149. Compounds were tested for PARP 1 activity based on percent cell survival of MCF-7 cells with alkylating agent MMS.
On the technique in general: Tetrazolium dyes change colour on reduction, which living cells bring about.

Another test concerns the target T1, PARP-1 (Homo sapiens, UniProt P09874).
T1 construct: purchased Trevigen
Put plainly: PARP-1 inhibitory activity, HT universal colorimetric PARP assay kit (Trevigen). The format is biochemical. Conditions: HT universal colorimetric PARP assay kit; read-out: PARP-1 activity in vitro IC50 nM). On the procedure: The compounds were tested for PARP-1 inhibitory activity by using HT universal colorimetric PARP assay kit obtained from Trevigen, following manufacturer's protocol.

T1 sequence (P09874 whole entry): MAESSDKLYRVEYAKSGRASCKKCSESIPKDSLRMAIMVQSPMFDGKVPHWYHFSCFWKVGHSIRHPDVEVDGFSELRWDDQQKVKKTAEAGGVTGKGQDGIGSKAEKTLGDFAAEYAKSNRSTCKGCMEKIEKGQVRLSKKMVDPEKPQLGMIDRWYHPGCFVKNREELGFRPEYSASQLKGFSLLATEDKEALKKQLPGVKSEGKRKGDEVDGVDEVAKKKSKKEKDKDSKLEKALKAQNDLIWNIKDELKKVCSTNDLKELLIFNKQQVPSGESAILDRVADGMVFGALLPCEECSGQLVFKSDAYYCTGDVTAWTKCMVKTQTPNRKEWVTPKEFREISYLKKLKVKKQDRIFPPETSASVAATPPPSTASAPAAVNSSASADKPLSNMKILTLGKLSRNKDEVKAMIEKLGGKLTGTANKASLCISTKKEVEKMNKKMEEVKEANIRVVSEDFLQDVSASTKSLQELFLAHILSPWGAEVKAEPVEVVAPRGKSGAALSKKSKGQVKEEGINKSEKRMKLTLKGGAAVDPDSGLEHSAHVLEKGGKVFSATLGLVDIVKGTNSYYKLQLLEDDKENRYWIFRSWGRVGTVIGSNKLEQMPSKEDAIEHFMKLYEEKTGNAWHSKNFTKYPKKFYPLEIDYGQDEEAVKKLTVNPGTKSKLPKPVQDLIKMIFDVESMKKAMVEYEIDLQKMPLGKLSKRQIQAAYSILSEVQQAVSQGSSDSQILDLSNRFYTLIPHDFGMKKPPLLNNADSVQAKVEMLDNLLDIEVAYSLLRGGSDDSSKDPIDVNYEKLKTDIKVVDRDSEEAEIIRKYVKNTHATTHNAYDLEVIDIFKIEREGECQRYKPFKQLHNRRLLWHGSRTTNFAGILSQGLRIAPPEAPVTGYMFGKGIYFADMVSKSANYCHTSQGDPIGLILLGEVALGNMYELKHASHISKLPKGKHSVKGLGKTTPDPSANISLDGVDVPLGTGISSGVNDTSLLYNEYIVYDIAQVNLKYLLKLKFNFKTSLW

Take `CC(C)(Sc1ccc(Cl)c(Cl)c1)C(=O)N1CCN(C(=O)c2cc(Cc3n[nH]c(=O)c4ccccc34)ccc2F)CC1` [Example 30, 4-(3-(4-(2-((3,4-dichlorophenyl)thio)-2-methylpropanoyl)piperazine-1-carbonyl)-4-fluorobenzyl)phthalazin-1(2H)-one]: the “Survival affected by drug [(−MMS/+MMS)] at 100 nM” value with MCF-7 cell line was 2.22. On PARP-1, the IC50 is 9.38 nM.

A word on the IC50: it is the concentration needed to halve the response being measured.
